Measured values as given in patent publication US7129239B2, “Purine compounds and uses thereof” (Pfizer Inc., priority 2002, dated 2006).

Tested on: CB-1 receptor
Assay: CB-1 receptor binding assay ([3H]SR141716A displacement)
Settings: rat or human protocol not specified
Experimental: The following assays were designed to detect compounds that inhibit the binding of [^3H] SR141716A (selective radiolabeled CB-1 ligand) and [^3H]
PelFreeze brains (available from Pel Freeze Biologicals, Rogers, Ark.) were cut up and placed in tissue preparation buffer (5 mM Tris HCl, pH=7.4 and 2 mM EDTA), polytroned at high speed and kept on ice for 15 minutes. The homogenate was then spun at 1,000×g for 5 minutes at 4° C. The supernatant was recovered and centrifuged at 100,000×G for 1 hour at 4° C. […] A protein assay was performed and 200 μl of tissue totaling 20 μg was added to the assay.
The test compounds were diluted in drug buffer (0.5% BSA, 10% DMSO and TME) and then 25 μl were added to a deep well polypropylene plate. [^3H] SR141716A was diluted in a ligand buffer (0.5% BSA plus TME) and 25 μl were added to the plate. A BCA protein assay was used to determine the appropriate tissue concentration and then 200 μl of rat brain tissue at the appropriate concentration was added to the plate. […] In the morning the filters were counted on a Wallac Betaplate™ counter (available from PerkinElmer Life Sciences™, Boston, Mass.). […]
The test compounds were diluted in drug buffer (0.5% BSA, 10% DMSO and TME) and then 25 μl were added to a deep well polypropylene plate. […] In the morning the filters were counted on a Wallac Betaplate™ counter (available from PerkinElmer Life Sciences™, Boston, Mass.).

## NC1(C(=O)[O-])CCN(c2ncnc3c2nc(-c2ccccc2Cl)n3-c2ccc(Cl)cc2)CC1.[K+] [Example 19A-2, 4-Amino-1-[9-(4-chlorophenyl)-8-(2-chlorophenyl)-9H-purin-6-yl]-piperidine-4-carboxylic Acid, Potassium Salt]
  binding activity: 1.2 nM

## O=C([O-])C1(Nc2ncnc3c2nc(-c2ccccc2Cl)n3-c2ccc(Cl)cc2)CCCC1.[K+] [Example 19A-1, 1-[9-(4-chlorophenyl)-8-(2-chlorophenyl)-9H-purin-6-ylamino]-cyclopentanecarboxylic Acid, Potassium Salt]
  binding activity: 2.8 nM
